Experimental data reported in patent EP4610262A1, “MACROCYCLIC COMPOUND AS CDK9 INHIBITOR AND USE THEREOF” (Artivila Biopharma, priority 2022, dated 2024).
Where two headings read alike, the source gives them in different places.

Key:
JAK2 = JAK2 (Homo sapiens, UniProt O60674); test: Kinase selectivity, inhibition rate at 10 nM (caliper mobility shift assay); assay type: biochemical; details: compound at 10 nM
Method: (§1) Compounds were tested at a concentration of 10 nM with detection in duplicate wells, or tested at 10 concentrations starting from 10 µM with three-fold serial dilutions, with detection in duplicate wells.
(§2) The inhibitory effect of the compounds on the activity of CDK9 protein kinase was detected by the caliper mobility shift assay method. 250 nL of the compound at 100-fold final concentration was transferred to a target 384-well-plate with a dispenser Echo 550. A kinase solution at 2.5-fold final concentration was prepared using 1× kinase buffer. 10 µL of the kinase solution at 2.5-fold final concentration was added to the compound well and positive control well respectively. 10 µL of 1× kinase buffer was added to the negative control well. The 384-well plate was centrifuged at 1000 rpm for 30 seconds and incubated at room temperature for 10 minutes. A mixed solution of ATP and kinase substrate at 5/3-fold final concentration was prepared with 1× kinase buffer, and to the 384-well plate was added with 15 µL per well of the mixed solution of ATP and substrate at 5/3-fold final concentration to start the reaction. The plate was centrifuged at 1000 rpm for 30 seconds, shaken to mix evenly, and incubated at room temperature for a corresponding time. 30 µL of detection stopping solution was added to terminate the kinase reaction. The 384-well plate was centrifuged at 1000 rpm for 30 seconds and shaken to mix evenly. The conversion rate was read with Caliper EZ Reader. The percent conversion inhibition rate = (% positive control conversion rate mean - % sample conversion rate / (% positive control conversion rate mean - % negative control conversion rate mean). Among them: negative control wells represent the conversion rate readings of kinase buffer background wells; positive control wells represent the conversion rate readings of wells without inhibition by compound. With the log value of concentration as the x-axis and the percentage inhibition rate as the y-axis, a dose-response curve was fitted using the log (inhibitor) vs. response -Variable slope of the analysis software GraphPad Prism 5 to obtain the IC50 value of each compound on enzyme activity. Calculation formula: y=Bottom + (Top-Bottom)/(1+10^((LogIC50-x) × hillslope)), x: logarithm of inhibitor concentration; y: % inhibition rate.
(§3) According to the description of the above experiment on kinase activity inhibition, some compounds were tested for their selective inhibition rate against the kinases of CDK7, CDK9, JAK1, JAK2, JAK3, ITK, RET, TYK2, and LRRK2 at 10 nM. The results are shown in Table 3 below: (Inhibition rate range: A>50%; B: 25-49%; C: <25%): […]

JAK1 = JAK1 (Homo sapiens, UniProt P23458); test: as above; assay type: biochemical; details: compound at 10 nM
Method: as §1, §2, §3

MV-4-11 = test: CDK9 cell activity assay, cell growth inhibition (CellTiter-Glo, 72 hours); assay type: cell-based; details: Homo sapiens, MV4-11
Method: (§4) In the CDK9 cell activity assay, the cell line MV-4-11 was cultured in IMDM culture medium containing 10% fetal bovine serum (containing 100 U/mL penicillin and 0.1 g/L streptomycin); the cell line HCC1187 was cultured in RPMI-1640 culture medium containing 10% fetal bovine serum (containing 100 U/mL penicillin and 0.1 g/L streptomycin); the cell line Mia Paca-2 was cultured in DMEM containing 10% fetal bovine serum and 2.5% horse serum (containing 100 U/mL penicillin and 0.1 g/L streptomycin); and the cell line A375 was cultured in RPMI-1640 culture medium containing 10% fetal bovine serum (containing 100 U/mL penicillin and 0.1 g/L streptomycin). All cells were cultured in an incubator with saturated humidity at 37°C with 5% CO2.
(§5) When MV-4-11 cells, HCC1187 cells, Mia Paca-2 cells, and A375 cells grew to 80%-90% confluence, they were digested with trypsin, resuspended, counted, and diluted to a certain cell density with complete medium. 100 µL of the cells was plated into each well of a 96-well plate, and the complete medium was used as a background control. The cells were cultured overnight in an incubator with saturated humidity at 37°C with 5% CO2. The compounds were diluted with DMSO to a final concentration of 200×. 3 µL of the stock solution of the above compounds in DMSO was added to 197 µL of complete medium, and 50 µL of the compound diluted in the medium was added to the cells of each well. The cells were cultured in an incubator with saturated humidity at 37°C with 5% CO2 for 72 hours. After 72 hours, the culture plates were placed at room temperature for equilibrium. 40 µL of CellTiter-Glo® reagent was added to each well. The plate was mixed evenly on a shaker for 2 minutes to lyse the cells then incubated at room temperature for 60 minutes to stabilize the chemiluminescent signal, and the chemiluminescence was read using a PE EnVision microplate reader. The inhibition rate on cell growth was calculated as % Inh = (DMSO well - compound treatment well) / (DMSO well - background well) x 100, and fitting was performed using GraphPad Prism 5 to obtain the IC50 values against cell growth.

CDK9 = CDK9 (Homo sapiens, UniProt P50750); test: Inhibition of CDK9 kinase activity (caliper mobility shift assay); assay type: biochemical; details: for IC50: 10 concentrations from 10 µM, three-fold dilutions; for inhibition at 0.01 µM: compound at 10 nM
Method: as §1, §2

LRRK2 = LRRK2 (Homo sapiens, UniProt Q5S007); test: Kinase selectivity, inhibition rate at 10 nM (caliper mobility shift assay); assay type: biochemical; details: compound at 10 nM
Method: as §1, §2, §3

HCC1187 = test: CDK9 cell activity assay, cell growth inhibition (CellTiter-Glo, 72 hours); assay type: cell-based; details: Homo sapiens
Method: as §4, §5

A375 = test: as above; assay type: cell-based; details: Homo sapiens, A-375
Method: as §4, §5

Mia-Paca-2 = test: as above; assay type: cell-based; details: Homo sapiens
Method: as §4, §5

[1] = selectivity panel Table 3, read-out: Inhibition rate CDK9
[2] = read-out: Inhibition rate on CDK9 kinase activity

Chain of JAK2 (O60674 whole entry): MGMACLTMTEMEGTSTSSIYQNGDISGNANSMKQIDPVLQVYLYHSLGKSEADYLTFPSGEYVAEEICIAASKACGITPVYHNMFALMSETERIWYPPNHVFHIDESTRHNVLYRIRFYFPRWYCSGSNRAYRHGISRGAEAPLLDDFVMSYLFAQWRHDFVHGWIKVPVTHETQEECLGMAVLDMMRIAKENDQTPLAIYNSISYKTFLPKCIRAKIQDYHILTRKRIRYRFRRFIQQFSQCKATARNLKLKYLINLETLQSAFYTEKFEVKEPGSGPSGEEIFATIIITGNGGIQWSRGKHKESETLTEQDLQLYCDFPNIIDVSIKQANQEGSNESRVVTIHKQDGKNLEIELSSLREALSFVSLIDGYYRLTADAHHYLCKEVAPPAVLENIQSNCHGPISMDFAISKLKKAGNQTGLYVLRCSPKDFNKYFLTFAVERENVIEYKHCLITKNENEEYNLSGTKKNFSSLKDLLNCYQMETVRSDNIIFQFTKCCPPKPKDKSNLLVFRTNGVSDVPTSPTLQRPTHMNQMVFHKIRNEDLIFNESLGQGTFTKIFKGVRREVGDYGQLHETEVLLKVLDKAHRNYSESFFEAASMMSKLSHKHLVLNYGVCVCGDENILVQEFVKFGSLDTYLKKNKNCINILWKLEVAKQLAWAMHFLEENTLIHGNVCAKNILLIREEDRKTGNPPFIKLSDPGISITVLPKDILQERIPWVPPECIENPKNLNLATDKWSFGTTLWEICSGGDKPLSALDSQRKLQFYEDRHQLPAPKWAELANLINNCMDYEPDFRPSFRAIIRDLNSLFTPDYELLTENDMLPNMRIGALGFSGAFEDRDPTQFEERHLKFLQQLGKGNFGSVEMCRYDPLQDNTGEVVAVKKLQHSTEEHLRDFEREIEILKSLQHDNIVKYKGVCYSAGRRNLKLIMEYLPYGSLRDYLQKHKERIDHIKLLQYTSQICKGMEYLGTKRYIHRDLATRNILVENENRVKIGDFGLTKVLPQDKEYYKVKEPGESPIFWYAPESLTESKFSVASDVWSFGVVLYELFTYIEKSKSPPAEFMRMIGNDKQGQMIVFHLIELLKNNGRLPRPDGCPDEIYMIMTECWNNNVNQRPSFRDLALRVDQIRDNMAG
Chain of CDK9 (P50750 whole entry): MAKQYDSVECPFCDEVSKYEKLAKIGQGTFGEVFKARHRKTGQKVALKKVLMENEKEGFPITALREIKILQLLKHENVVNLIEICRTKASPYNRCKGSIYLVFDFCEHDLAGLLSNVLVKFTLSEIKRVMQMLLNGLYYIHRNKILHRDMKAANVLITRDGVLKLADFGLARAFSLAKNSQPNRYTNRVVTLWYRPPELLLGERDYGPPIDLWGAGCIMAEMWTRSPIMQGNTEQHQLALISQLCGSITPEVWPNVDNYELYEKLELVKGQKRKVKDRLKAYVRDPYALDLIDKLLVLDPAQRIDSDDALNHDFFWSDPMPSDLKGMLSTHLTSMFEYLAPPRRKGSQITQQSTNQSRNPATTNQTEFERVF
Chain of CDK9 (O60563 whole entry partner): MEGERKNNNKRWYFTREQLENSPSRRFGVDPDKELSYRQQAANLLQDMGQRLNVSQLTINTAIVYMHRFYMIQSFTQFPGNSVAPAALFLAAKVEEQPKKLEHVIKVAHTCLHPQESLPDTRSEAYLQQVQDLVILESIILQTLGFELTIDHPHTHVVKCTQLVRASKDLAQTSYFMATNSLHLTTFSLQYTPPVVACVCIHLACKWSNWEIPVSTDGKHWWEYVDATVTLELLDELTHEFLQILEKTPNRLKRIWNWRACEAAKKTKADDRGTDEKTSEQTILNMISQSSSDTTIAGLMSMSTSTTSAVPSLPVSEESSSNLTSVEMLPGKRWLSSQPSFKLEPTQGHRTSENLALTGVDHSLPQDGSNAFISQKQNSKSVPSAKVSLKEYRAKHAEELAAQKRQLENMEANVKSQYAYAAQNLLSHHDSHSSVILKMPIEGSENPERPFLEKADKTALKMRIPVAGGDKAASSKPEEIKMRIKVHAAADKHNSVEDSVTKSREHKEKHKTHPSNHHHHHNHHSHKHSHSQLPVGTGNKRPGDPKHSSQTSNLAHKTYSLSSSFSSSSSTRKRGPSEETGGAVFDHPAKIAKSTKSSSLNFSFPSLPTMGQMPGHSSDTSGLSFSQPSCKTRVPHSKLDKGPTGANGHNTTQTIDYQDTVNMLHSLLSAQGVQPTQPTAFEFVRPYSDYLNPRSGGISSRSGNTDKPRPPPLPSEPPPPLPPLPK
Chain of JAK1 (P23458 whole entry): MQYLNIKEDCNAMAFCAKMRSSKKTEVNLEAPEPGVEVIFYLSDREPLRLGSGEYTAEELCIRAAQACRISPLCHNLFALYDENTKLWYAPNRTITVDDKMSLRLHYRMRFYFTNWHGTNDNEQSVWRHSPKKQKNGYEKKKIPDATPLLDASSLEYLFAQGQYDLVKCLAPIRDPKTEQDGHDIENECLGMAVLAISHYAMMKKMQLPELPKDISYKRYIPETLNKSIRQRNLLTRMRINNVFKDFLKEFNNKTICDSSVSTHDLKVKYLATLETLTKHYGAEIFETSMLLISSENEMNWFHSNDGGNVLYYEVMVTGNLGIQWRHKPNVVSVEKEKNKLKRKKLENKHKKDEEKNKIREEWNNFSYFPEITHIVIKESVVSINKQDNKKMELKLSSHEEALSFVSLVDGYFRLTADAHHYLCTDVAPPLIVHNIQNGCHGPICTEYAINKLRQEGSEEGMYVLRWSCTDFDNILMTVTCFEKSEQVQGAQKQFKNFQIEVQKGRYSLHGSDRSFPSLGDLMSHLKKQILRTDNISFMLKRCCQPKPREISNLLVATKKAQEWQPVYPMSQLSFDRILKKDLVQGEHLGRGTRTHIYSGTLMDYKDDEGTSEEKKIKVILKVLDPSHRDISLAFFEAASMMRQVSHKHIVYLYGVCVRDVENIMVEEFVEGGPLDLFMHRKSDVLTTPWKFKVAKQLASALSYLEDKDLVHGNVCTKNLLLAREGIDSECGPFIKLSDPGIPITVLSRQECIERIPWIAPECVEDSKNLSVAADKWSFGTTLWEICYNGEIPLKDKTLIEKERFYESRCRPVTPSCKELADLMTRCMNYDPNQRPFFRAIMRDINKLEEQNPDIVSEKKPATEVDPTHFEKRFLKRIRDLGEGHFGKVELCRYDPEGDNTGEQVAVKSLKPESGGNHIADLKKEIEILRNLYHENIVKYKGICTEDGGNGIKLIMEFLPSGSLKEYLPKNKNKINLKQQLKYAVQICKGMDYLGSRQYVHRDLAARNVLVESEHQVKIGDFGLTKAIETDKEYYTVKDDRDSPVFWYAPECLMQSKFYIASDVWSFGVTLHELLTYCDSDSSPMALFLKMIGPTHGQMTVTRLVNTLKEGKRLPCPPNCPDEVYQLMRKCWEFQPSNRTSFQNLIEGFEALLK

inhibition at 0.01 µM (JAK2) [%] | inhibition at 0.01 µM (JAK1) [%] | IC50 (MV-4-11) [nM] | IC50 (CDK9) [nM] | inhibition at 0.01 µM (CDK9; [1]) [%] | inhibition at 0.01 µM (CDK9; [2]) [%] | inhibition at 0.01 µM (LRRK2) [%] | SMILES | IC50 (HCC1187) [nM] | IC50 (A375) [nM] | IC50 (Mia-Paca-2) [nM]
< 25 | < 25 | < 250 | < 100 | > 50 | > 50 | – | Clc1cnc2nc1OCCCCCNCc1cccc(c1)N2 [Compound 18, 1^5-chloro-11-oxa-2,5-diaza-1(2,4)-pyrimidina-3(1,3)-benzenacyclodecaphane] | – | – | –
< 25 | < 25 | – | < 100 | 25 to 49 | 25 to 49 | < 25 | N#Cc1cnc2nc1NCCCCCNCc1cccc(c1)N2 [Compound 15, 2,5,11-triaza-1(2,4)-pyrimidina-3(1,3)-benzenacycloundecaphan-1^5-carbonitrile] | – | – | –
< 25 | < 25 | < 250 | < 100 | > 50 | > 50 | < 25 | Cc1ccc2cc1-c1nc(ncc1Cl)Nc1cccc(c1)NC/C=C\CN2 [Compound 12, (Z)-2^5-chloro-1^6-methyl-3,5,10-triaza-2(4,2)-pyrimidina-1,4(1,3)-dibenzocyclodecane-7-ene] | < 250 | < 250 | < 250

SMILES | inhibition at 0.01 µM (JAK2) [%] | inhibition at 0.01 µM (JAK1) [%] | IC50 (MV-4-11) [nM] | IC50 (CDK9) [nM] | inhibition at 0.01 µM (CDK9; [1]) [%] | inhibition at 0.01 µM (CDK9; [2]) [%] | inhibition at 0.01 µM (LRRK2) [%] | IC50 (HCC1187) [nM] | IC50 (A375) [nM] | IC50 (Mia-Paca-2) [nM]
CN1CCCCCNc2nc(ncc2Cl)Nc2cccc(c2)C1 [Compound 10, 1^5-chloro-5-methyl-2,5,11-triaza-1(2,4)-pyrimidina-3(1,3)-benzene cycloundecane] | – | – | < 250 | < 100 | – | 25 to 49 | – | 1000 to 5000 | 250 to 1000 | 250 to 1000
